Tests used:
[1] = for vapor or sublimation pressure: Transpiration method; for Triple point temperature: DSC; for Normal melting temperature: DTA
[2] = Molar enthalpy of transition or fusion; settings: DSC

Oc1c(Br)c(Br)c(Br)c(Br)c1Br [pentabromophenol]
[1], Crystal 2
Settings | vapor or sublimation pressure [kPa]
322.9 K | 1.9e-07
327.8 K | 3.6e-07
332.8 K | 6.7e-07
337.7 K | 1.2e-06
342.6 K | 2.3e-06
347.6 K | 4.2e-06
352.6 K | 7.8e-06
357.6 K | 1.4e-05
362.6 K | 2.7e-05
367.4 K | 4.5e-05

Settings | Molar enthalpy of transition or fusion, [2] [kcal/mol] | Triple point temperature, [1] [K]
Crystal 1 | 4.42 | 496.3
Crystal 2 | 2.82 | 416.2

BrCC(Br)COc1c(Br)cc(Br)cc1Br (centres undefined) [1,3,5-tribromo(2,3-dibromopropoxy)benzene]
[1], Liquid
Settings | vapor or sublimation pressure [kPa]
322.9 K | 1.9e-06
327.8 K | 3.2e-06
332.7 K | 5.5e-06
337.7 K | 9.6e-06
342.7 K | 1.7e-05
347.7 K | 2.7e-05
352.7 K | 4.3e-05
357.7 K | 6.7e-05
362.7 K | 0.00013
367.7 K | 0.00016

Settings | Molar enthalpy of transition or fusion, [2] [kcal/mol] | Triple point temperature, [1] [K]
Crystal 1 | 0.612 | 313.7
Crystal 2 | 4.09 | 307.9

CCc1c(Br)c(Br)c(Br)c(Br)c1Br [pentabromoethylbenzene]
[1], Crystal
Settings | vapor or sublimation pressure [kPa]
322.7 K | 3.7e-06
327.6 K | 6.1e-06
332.6 K | 1.04e-05
337.5 K | 1.7e-05
342.4 K | 3.2e-05
347.4 K | 4.9e-05
352.3 K | 8.3e-05
357.4 K | 0.00013
362.3 K | 0.00021
367.3 K | 0.00032

Crystal
Settings | Molar enthalpy of transition or fusion [kcal/mol] | Normal melting temperature [°C]
[1] | – | 135.8
[2] | 3.2 | –

Cc1c(Br)c(Br)c(Br)c(Br)c1Br [pentabromomethylbenzene]
[1], Crystal
Settings | vapor or sublimation pressure [kPa]
322.9 K | 2.7e-07
327.8 K | 5.1e-07
332.9 K | 9.1e-07
337.6 K | 1.62e-06
342.7 K | 2.9e-06
347.6 K | 5.5e-06
352.6 K | 9e-06
357.6 K | 1.5e-05
362.5 K | 2.7e-05
367.6 K | 4.2e-05

Crystal
Settings | Molar enthalpy of transition or fusion [kcal/mol] | Normal melting temperature [°C]
[1] | – | 286
[2] | 7 | –

Cc1c(Br)c(Br)c(C)c(Br)c1Br [1,2,4,5-tetrabromodimethylbenzene]
[1], Crystal
Settings | vapor or sublimation pressure [kPa]
322.8 K | 2.4e-06
327.7 K | 4.2e-06
332.7 K | 7.2e-06
337.5 K | 1.25e-05
342.5 K | 2.1e-05
347.5 K | 3.6e-05
352.4 K | 5.9e-05
357.5 K | 0.0001
362.4 K | 0.00016
367.4 K | 0.00025

Crystal
Settings | Molar enthalpy of transition or fusion [kcal/mol] | Normal melting temperature [°C]
[1] | – | 254.2
[2] | 5.71 | –

Source: the NIST ThermoML archive (doi:10.1021/acs.jced.7b01040)
